Measured values reported in patent EP4786487A1, “PEPTIDE” (Peptidream Inc, priority 2023, dated 2025).
pIC50: −log10 of the molar value. Like-named read-outs stand apart in the source and are kept apart here. Starred links: 1 amine or outer side, 2 acyl side, 3 side chain; linkers in the order of their positions; H or OH if unused. Positions of bridges follow the written chain, without caps; N, C: chain ends. Non-standard residues stand in square brackets, D forms with d. Residues, ends and D or L forms follow the SMILES beside them. *: point of attachment. Phe(4-(4-pyridyl)) = N[C@@H](Cc1ccc(-c2ccncc2)cc1)C(=O)O; Phe(3-OCH2COOH) = N[C@@H](Cc1cccc(OCC(=O)O)c1)C(=O)O; Piperidine(4-CH2CH2CONH2) = NC(=O)CCC1CCN(*)CC1; Trp(6-OH) = N[C@@H](Cc1c[nH]c2cc(O)ccc12)C(=O)O; Phe(4-COOH) = N[C@@H](Cc1ccc(C(=O)O)cc1)C(=O)O; Trp(6-aza) = N[C@@H](Cc1c[nH]c2cnccc12)C(=O)O; Trp(7-aza) = N[C@@H](Cc1c[nH]c2ncccc12)C(=O)O; Piperidinyl(4-CH2COOH) = O=C(O)CC1CCN(*)CC1; Bip = N[C@@H](Cc1ccc(-c2ccccc2)cc1)C(=O)O; Gly(decyl) = CCCCCCCCCC[C@H](N)C(=O)O; Gly(N(CH2)3COOH) = O=C(O)CCCNCC(=O)O; NMeY = CN[C@@H](Cc1ccc(O)cc1)C(=O)O; X1 = CCCCCCC[C@H](N[*:1])C(=O)[*:2]; NMeF = CN[C@@H](Cc1ccccc1)C(=O)O; 4Pal = N[C@@H](Cc1ccncc1)C(=O)O; NMeE = CN[C@@H](CCC(=O)O)C(=O)O; Carboxymethyl = O=C(O)C*; NMeA = CN[C@@H](C)C(=O)O; NEtG = CCNCC(=O)O; Sar = CNCC(=O)O; X17 = CCCCC*

Assays:
Type in all cases: cell-based
Myostatin [1] = biological target: T1, Myostatin (Homo sapiens, UniProt O14793); experiment: Reporter gene assay for myostatin signaling in HepG2 cell line, Evaluation Procedure (1), myostatin inhibition; conditions: read-out: IC50 (Luciferase) Myostatin HepG2
T1 construct: active myostatin (also called mature myostatin) is a homodimer consisting of two C-terminal growth factor domains; purchased R&D systems 788-G8/CF
T1 sequence (O14793 267-375): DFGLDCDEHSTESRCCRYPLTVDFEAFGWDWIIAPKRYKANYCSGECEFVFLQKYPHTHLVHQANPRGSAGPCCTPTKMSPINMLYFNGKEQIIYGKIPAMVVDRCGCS
How it was run: (§1)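 IC50 derived from One-Glo luciferase luminescence after 20–24 h at 37 °C. Peptides titrated 4-fold at 0.006–100 nmol/L against myostatin or 0.12–2000 nmol/L against GDF-11 in HepG2 cells carrying a transfected CAGA12-luciferase reporter, kept in 0.1% BSA EMEM.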

Myostatin [2] = experiment: as above; conditions: GDF-11 IC50 versus Myostatin IC50
How it was run: as §1

GDF-11 = biological target: T2, GDF-11 (Homo sapiens, UniProt O95390); experiment: Reporter gene assay for myostatin signaling in HepG2 cell line, Evaluation Procedure (1), GDF-11 inhibition; conditions: read-out: IC50 (Luciferase) GDF-11 HepG2
T2 construct: purchased R&D systems 1958-GD-G8/CF
T2 sequence (O95390 299-407): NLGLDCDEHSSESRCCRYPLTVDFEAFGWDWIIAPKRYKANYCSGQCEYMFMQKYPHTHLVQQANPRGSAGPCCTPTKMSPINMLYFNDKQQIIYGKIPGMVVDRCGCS
How it was run: as §1

SMILES	pIC50 (Myostatin [1]; Method A: Myostatin 10 ng/mL)	Selectivity (Myostatin [2]; Method A)	pIC50 (GDF-11; Method A: GDF-11 10 ng/mL)	also measured
CCCCCCCCCC[C@@H]1NC(=O)[C@H](Cc2ccccc2)N(C)C(=O)[C@H](CCCNC(=N)N)NC(=O)[C@H](Cc2ccc(C(=O)O)cc2)NC(=O)[C@H](Cc2cccc(OCC(=O)O)c2)NC(=O)[C@H]2CCCN2C(=O)[C@H]([C@@H](C)CC)NC(=O)[C@H](Cc2ccccc2)N(C)C(=O)[C@H](Cc2ccc(O)cc2)NC(=O)[C@H](Cc2c[nH]c3cnccc23)NC(=O)[C@H](C)NC(=O)[C@H](C)NC(=O)CSC[C@H](C(=O)N2CCC(CC(=O)O)CC2)NC(=O)[C@H](Cc2ccccc2)N(C)C(=O)[C@H](CCC(=O)O)N(C)C1=O [Myostatin_99_v338] ({CH2CO}-AA[Trp(6-aza)]Y[NMeF]I[dP][Phe(3-OCH2COOH)][Phe(4-COOH)]R[NMeF][Gly(decyl)][NMeE][NMeF][dC]-{Piperidinyl(4-CH2COOH)}; thioether N-15)				pIC50 (Myostatin [1]; Method B: Myostatin 1 ng/mL): 9.42; Selectivity (Myostatin [2]; Method B): 299.8; pIC50 (GDF-11; Method B: GDF-11 1 ng/mL): 6.94
CC[C@H](C)[C@@H]1NC(=O)[C@H](Cc2ccccc2)N(C)C(=O)[C@H](Cc2ccc(O)cc2)NC(=O)[C@H](Cc2ccc(-c3ccccc3)cc2)NC(=O)[C@H](C)NC(=O)CN(CCCC(=O)O)C(=O)CSC[C@H](C(=O)O)NC(=O)[C@H](Cc2ccccc2)N(C)C(=O)[C@H](C)N(C)C(=O)[C@H](CC(C)C)NC(=O)[C@H](Cc2ccccc2)N(C)C(=O)[C@H](CCCNC(=N)N)NC(=O)[C@H](Cc2ccc(C(=O)O)cc2)NC(=O)[C@H](Cc2ccc(O)cc2)NC(=O)CN(C)C1=O [Myostatin_99_v176] ({CH2CO}-[Gly(N(CH2)3COOH)]A[Bip]Y[NMeF]I[Sar]Y[Phe(4-COOH)]R[NMeF]L[NMeA][NMeF][dC]-OH; thioether N-15)	7.76	22	6.42	
CCCCCOC[C@@H]1NC(=O)[C@H](Cc2ccccc2)N(C)C(=O)[C@H](CCCNC(=N)N)NC(=O)[C@H](Cc2ccc(C(=O)O)cc2)NC(=O)[C@H](Cc2ccncc2)NC(=O)CN(C)C(=O)[C@H]([C@@H](C)CC)NC(=O)[C@H](Cc2ccccc2)N(C)C(=O)[C@H](Cc2ccc(O)cc2)NC(=O)[C@H](Cc2c[nH]c3ccccc23)NC(=O)[C@H](C)NC(=O)CN(CCCC(=O)O)C(=O)CSC[C@H](C(=O)O)NC(=O)[C@H](Cc2ccccc2)N(C)C(=O)[C@H](C)N(C)C1=O [Myostatin_99_v226] ({CH2CO}-[Gly(N(CH2)3COOH)]AWY[NMeF]I[Sar][4Pal][Phe(4-COOH)]R[NMeF]S(X17)[NMeA][NMeF][dC]-OH; thioether N-15)	7.99	391	5.40	
CC[C@H](C)[C@@H]1NC(=O)[C@H](Cc2ccccc2)N(C)C(=O)[C@H](Cc2ccc(O)cc2)NC(=O)[C@H](Cc2ccc(-c3ccncc3)cc2)NC(=O)[C@H](C)NC(=O)CN(CCCC(=O)O)C(=O)CSC[C@H](C(N)=O)NC(=O)[C@H](Cc2ccccc2)N(C)C(=O)[C@H](C)N(C)C(=O)[C@H](CC(C)C)NC(=O)[C@H](Cc2ccccc2)N(C)C(=O)[C@H](CCCNC(=N)N)NC(=O)[C@H](Cc2ccc(OCC(=O)O)cc2)NC(=O)[C@H](Cc2cccc(OCC(=O)O)c2)NC(=O)[C@H](C)N(C)C1=O [Myostatin_99_v123] ({CH2CO}-[Gly(N(CH2)3COOH)]A[Phe(4-(4-pyridyl))]Y[NMeF]I[NMeA][Phe(3-OCH2COOH)]Y(Carboxymethyl)R[NMeF]L[NMeA][NMeF][dC]-NH2; thioether N-15)	7.42	194	5.13	
CCCCCCCCCC[C@@H]1NC(=O)[C@H](Cc2ccccc2)N(C)C(=O)[C@H](CCCNC(=N)N)NC(=O)[C@H](Cc2ccc(C(=O)O)cc2)NC(=O)[C@H](Cc2cccc(OCC(=O)O)c2)NC(=O)CN(CC)C(=O)[C@H]([C@@H](C)CC)NC(=O)[C@H](Cc2ccccc2)N(C)C(=O)[C@H](Cc2ccc(O)cc2)NC(=O)[C@H](Cc2c[nH]c3cc(O)ccc23)NC(=O)[C@H](C)NC(=O)[C@H](C)NC(=O)CSC[C@H](C(=O)N2CCC(CCC(N)=O)CC2)NC(=O)[C@H](Cc2ccccc2)N(C)C(=O)[C@H](CCC(=O)O)N(C)C1=O [Myostatin_99_v383] ({CH2CO}-AA[Trp(6-OH)]Y[NMeF]I[NEtG][Phe(3-OCH2COOH)][Phe(4-COOH)]R[NMeF][Gly(decyl)][NMeE][NMeF][dC]-{Piperidine(4-CH2CH2CONH2)}; thioether N-15)				pIC50 (Myostatin [1]; Method D: Myostatin 1.5 ng/mL): 9.74; Selectivity (Myostatin [2]; Method D): 220.797; pIC50 (GDF-11; Method D: GDF-11 1.5 ng/mL): 7.39
CCCCCCC[C@@H]1NC(=O)[C@H](Cc2ccccc2)N(C)C(=O)[C@H](CCCNC(=N)N)NC(=O)[C@H](Cc2ccc(C(=O)O)cc2)NC(=O)[C@H](Cc2cccc(OCC(=O)O)c2)NC(=O)CN(C)C(=O)[C@H]([C@@H](C)CC)NC(=O)[C@H](Cc2ccccc2)N(C)C(=O)[C@H](Cc2ccc(O)cc2)NC(=O)[C@H](Cc2c[nH]c3ccccc23)NC(=O)[C@H](C)NC(=O)[C@H](C)NC(=O)CSC[C@H](C(=O)O)NC(=O)[C@H](Cc2ccccc2)N(C)C(=O)[C@H](C)N(C)C1=O [Myostatin_99_v174] ({CH2CO}-AAWY[NMeF]I[Sar][Phe(3-OCH2COOH)][Phe(4-COOH)]R[NMeF][X1][NMeA][NMeF][dC]-OH; thioether N-15)	8.77	133	6.65	
CCCCCCC[C@@H]1NC(=O)[C@H](Cc2ccccc2)N(C)C(=O)[C@H](CCCNC(=N)N)NC(=O)[C@H](Cc2ccc(OCC(=O)O)cc2)NC(=O)[C@H](Cc2cccc(OCC(=O)O)c2)NC(=O)[C@H](C)N(C)C(=O)[C@H]([C@@H](C)CC)NC(=O)[C@H](Cc2ccccc2)N(C)C(=O)[C@H](Cc2ccc(O)cc2)NC(=O)[C@H](Cc2c[nH]c3ncccc23)NC(=O)[C@H](C)NC(=O)CN(CCCC(=O)O)C(=O)CSC[C@H](C(=O)O)NC(=O)[C@H](Cc2ccccc2)N(C)C(=O)[C@H](C)N(C)C1=O [Myostatin_99_v153] ({CH2CO}-[Gly(N(CH2)3COOH)]A[Trp(7-aza)]Y[NMeF]I[NMeA][Phe(3-OCH2COOH)]Y(Carboxymethyl)R[NMeF][X1][NMeA][NMeF][dC]-OH; thioether N-15)	8.92	222	6.57	
CC[C@H](C)[C@@H]1NC(=O)[C@H](Cc2ccccc2)N(C)C(=O)[C@H](Cc2ccc(O)cc2)NC(=O)[C@H](Cc2ccc(-c3ccncc3)cc2)NC(=O)[C@H](C)NC(=O)CN(CCCC(=O)O)C(=O)CSC[C@H](C(=O)O)NC(=O)[C@H](Cc2ccccc2)N(C)C(=O)[C@H](C)N(C)C(=O)[C@H](CC(C)C)NC(=O)[C@H](Cc2ccccc2)N(C)C(=O)[C@H](CCCNC(=N)N)NC(=O)[C@H](Cc2ccc(OCC(=O)O)cc2)NC(=O)[C@H](Cc2cccc(OCC(=O)O)c2)NC(=O)CN(C)C1=O [Myostatin_99_v84] ({CH2CO}-[Gly(N(CH2)3COOH)]A[Phe(4-(4-pyridyl))]Y[NMeF]I[Sar][Phe(3-OCH2COOH)]Y(Carboxymethyl)R[NMeF]L[NMeA][NMeF][dC]-OH; thioether N-15)	7.56	112	5.52	
CCCCCCC[C@@H]1NC(=O)[C@H](Cc2ccccc2)N(C)C(=O)[C@H](CCCNC(=N)N)NC(=O)[C@H](Cc2ccc(C(=O)O)cc2)NC(=O)[C@H](Cc2cccc(OCC(=O)O)c2)NC(=O)CN(C)C(=O)[C@H]([C@@H](C)CC)NC(=O)[C@H](Cc2ccc(O)cc2)N(C)C(=O)[C@H](Cc2ccc(O)cc2)NC(=O)[C@H](Cc2ccc(-c3ccccc3)cc2)NC(=O)[C@H](C)NC(=O)CN(CCCC(=O)O)C(=O)CSC[C@H](C(=O)O)NC(=O)[C@H](Cc2ccccc2)N(C)C(=O)[C@H](C)N(C)C1=O [Myostatin_99_v117] ({CH2CO}-[Gly(N(CH2)3COOH)]A[Bip]Y[NMeY]I[Sar][Phe(3-OCH2COOH)][Phe(4-COOH)]R[NMeF][X1][NMeA][NMeF][dC]-OH; thioether N-15)	8.77	419	6.15	
CC[C@H](C)[C@@H]1NC(=O)[C@H](Cc2ccccc2)N(C)C(=O)[C@H](Cc2ccc(O)cc2)NC(=O)[C@H](Cc2c[nH]c3ccccc23)NC(=O)[C@H](C)NC(=O)[C@H](C)NC(=O)CSC[C@H](C(=O)O)NC(=O)[C@H](Cc2ccccc2)N(C)C(=O)[C@H](C)N(C)C(=O)[C@H](CC(C)C)NC(=O)[C@H](Cc2ccccc2)N(C)C(=O)[C@H](CCCNC(=N)N)NC(=O)[C@H](Cc2ccc(C(=O)O)cc2)NC(=O)[C@H](Cc2ccc(O)cc2)NC(=O)CN(C)C1=O [Myostatin_99_v172] ({CH2CO}-AAWY[NMeF]I[Sar]Y[Phe(4-COOH)]R[NMeF]L[NMeA][NMeF][dC]-OH; thioether N-15)	8.29	34	6.76	
